Experimental data from patent US8637246B2, “BRAF mutations conferring resistance to BRAF inhibitors” (Dana-Farber Cancer Institute, Inc., priority 2010, dated 2014).

Key:
[1] = molecular target: BRAF V600E-P686Q (Homo sapiens, UniProt P15056, P686Q/V600E); experiment: Western blot of p-MEK1/2 and p-ERK1/2 in transfected 293T cells (BRAF V600E-P686Q); type: cell-based; details: 293T cells transfected with BRAF V600E-P686Q; 0, 0.08, 0.4, 2, 5 and 10 μM for 16 hours; immunoblot (FIG. 8)
Description: (§1) 293T cells were transfected with 6 μg of pWZL(BLAST)-BRAF for each putative resistance allele and subsequently treated with a range of concentrations of the BRAF(V600E) inhibitor PLX4720 (0, 0.08, 0.4, 2, 5 and 10 μM) for 16 hours. Immunoblot studies were performed using standard procedures. Briefly, the treated cells were lysed with TNN buffer containing protease inhibitor (Roche), NaF and NaVO3 (1 mM each). Lysates were quantified (Bradford assay), denatured (95° C.), and resolved by SDS gel electrophoresis. Proteins was transferred to nitrocellulose membranes and probed with primary antibodies recognizing BRAF (Santa Cruz; 1:10,000 dilution), p-ERK1/2, p-MEK1/2 (Ser-217/221), and α-tubulin (Cell Signaling Technology; 1:1,000 dilution). After incubation with the appropriate secondary antibody (anti-rabbit or anti-mouse IgG, HRP-linked; 1:1,000 dilution) (Cell Signaling Technology), proteins were detected using chemiluminescence (Pierce).

[2] = molecular target: BRAF-V600E-T521K (Homo sapiens, UniProt P15056, T521K/V600E); experiment: Western blot of p-MEK1/2 and p-ERK1/2 in transfected 293T cells (BRAF-V600E-T521K); type: cell-based; details: 293T cells transfected with BRAF-V600E-T521K; 0, 0.08, 0.4, 2, 5 and 10 μM for 16 hours; immunoblot (FIG. 8)
Description: as §1

[3] = system: A375 cells expressing a wild-type BRAF polypeptide
[4] = system: A375 cells expressing a mutant BRAF polypeptide; details: A375 cells expressing a mutant BRAF polypeptide with one or more listed resistance mutations (A29V ... C748F)

BRAF-V600E-T521K, sequence (P15056 whole entry T521K/V600E): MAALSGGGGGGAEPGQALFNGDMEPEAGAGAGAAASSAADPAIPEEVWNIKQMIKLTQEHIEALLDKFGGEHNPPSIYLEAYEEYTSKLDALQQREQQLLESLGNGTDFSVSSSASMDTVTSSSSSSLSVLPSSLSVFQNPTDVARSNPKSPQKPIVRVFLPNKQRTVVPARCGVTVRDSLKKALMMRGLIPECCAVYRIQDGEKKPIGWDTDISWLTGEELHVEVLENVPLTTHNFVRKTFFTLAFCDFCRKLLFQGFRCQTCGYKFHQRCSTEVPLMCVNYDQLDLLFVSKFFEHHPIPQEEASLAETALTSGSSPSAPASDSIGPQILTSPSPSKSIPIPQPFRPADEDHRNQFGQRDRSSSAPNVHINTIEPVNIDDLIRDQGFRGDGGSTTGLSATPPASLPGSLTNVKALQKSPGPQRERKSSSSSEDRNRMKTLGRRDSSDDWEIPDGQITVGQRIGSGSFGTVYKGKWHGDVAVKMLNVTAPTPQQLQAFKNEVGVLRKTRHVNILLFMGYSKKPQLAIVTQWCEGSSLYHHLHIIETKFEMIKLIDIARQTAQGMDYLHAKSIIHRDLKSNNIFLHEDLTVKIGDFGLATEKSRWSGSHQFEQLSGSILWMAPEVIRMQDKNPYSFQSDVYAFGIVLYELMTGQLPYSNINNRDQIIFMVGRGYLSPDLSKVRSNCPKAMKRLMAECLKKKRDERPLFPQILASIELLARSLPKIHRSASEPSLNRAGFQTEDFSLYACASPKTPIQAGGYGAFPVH
BRAF V600E-P686Q, sequence (P15056 whole entry V600E/P686Q): as the sequence (P15056 whole entry T521K/V600E) above, with K521T, P686Q counted along it

SMILES | increase in phosphorylated MEK1/2 and ERK1/2 in the presence of increasing concentrations of inhibitor [1] | increase in phosphorylated MEK1/2 and ERK1/2 in the presence of increasing concentrations of inhibitor [2] | sensitivity of cells to the RAF inhibitor [3] | sensitivity of cells to the RAF inhibitor [4]
CCCS(=O)(=O)Nc1ccc(F)c(C(=O)c2c[nH]c3ncc(Cl)cc23)c1F [PLX4720] | sustained | sustained | – | –
Cn1c(Nc2ccc(C(F)(F)F)cc2)nc2cc(Oc3ccnc(-c4ncc(C(F)(F)F)[nH]4)c3)ccc21 [RAF-265] | – | – | sensitive | resistant
